The text below walks through data of US8575338B2, “Pyrimidine, pyridine and triazine derivatives as maxi-K channel openers” (Mitsubishi Tanabe Pharma Corporation, priority 2008, dated 2013).

The structures appear in SMILES notation.

The target in this experiment is T1, human BKαβ1 channels (Homo sapiens, UniProt Q12791).
T1 construct: expressed in transfected cells; host or cells: CHO cells (G418 and hygromycin selection)
T1 sequence (Q12791 whole entry): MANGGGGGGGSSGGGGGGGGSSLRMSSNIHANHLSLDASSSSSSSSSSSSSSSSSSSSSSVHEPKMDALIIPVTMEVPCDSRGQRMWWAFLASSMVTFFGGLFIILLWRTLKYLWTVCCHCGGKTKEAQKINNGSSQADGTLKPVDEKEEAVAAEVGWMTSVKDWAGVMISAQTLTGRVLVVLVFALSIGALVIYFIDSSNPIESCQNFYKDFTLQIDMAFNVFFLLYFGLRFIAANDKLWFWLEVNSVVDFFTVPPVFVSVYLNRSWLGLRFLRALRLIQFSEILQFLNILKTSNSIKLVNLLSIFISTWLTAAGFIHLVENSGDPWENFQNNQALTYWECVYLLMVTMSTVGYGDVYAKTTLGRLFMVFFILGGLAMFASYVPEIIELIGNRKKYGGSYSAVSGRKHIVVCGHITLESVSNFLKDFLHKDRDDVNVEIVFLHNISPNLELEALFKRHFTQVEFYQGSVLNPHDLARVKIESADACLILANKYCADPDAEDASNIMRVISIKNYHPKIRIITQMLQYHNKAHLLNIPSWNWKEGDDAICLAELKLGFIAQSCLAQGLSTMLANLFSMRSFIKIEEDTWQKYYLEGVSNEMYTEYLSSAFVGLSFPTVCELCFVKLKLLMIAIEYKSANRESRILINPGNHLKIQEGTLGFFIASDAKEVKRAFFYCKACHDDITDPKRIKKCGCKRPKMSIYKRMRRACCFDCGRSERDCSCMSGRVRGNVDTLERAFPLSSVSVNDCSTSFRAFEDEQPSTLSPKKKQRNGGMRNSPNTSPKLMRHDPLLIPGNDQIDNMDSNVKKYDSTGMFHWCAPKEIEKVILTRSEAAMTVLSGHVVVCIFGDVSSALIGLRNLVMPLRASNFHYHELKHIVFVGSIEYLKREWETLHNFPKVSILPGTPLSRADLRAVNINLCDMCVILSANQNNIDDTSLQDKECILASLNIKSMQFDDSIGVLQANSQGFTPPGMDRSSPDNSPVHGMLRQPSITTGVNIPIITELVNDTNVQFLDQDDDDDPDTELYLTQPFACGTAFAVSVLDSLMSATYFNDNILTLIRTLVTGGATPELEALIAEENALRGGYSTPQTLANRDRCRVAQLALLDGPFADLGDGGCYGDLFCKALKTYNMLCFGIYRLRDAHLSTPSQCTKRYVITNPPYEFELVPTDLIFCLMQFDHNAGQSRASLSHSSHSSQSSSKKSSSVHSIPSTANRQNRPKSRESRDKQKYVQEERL
T1 sequence (Q16558 whole entry partner): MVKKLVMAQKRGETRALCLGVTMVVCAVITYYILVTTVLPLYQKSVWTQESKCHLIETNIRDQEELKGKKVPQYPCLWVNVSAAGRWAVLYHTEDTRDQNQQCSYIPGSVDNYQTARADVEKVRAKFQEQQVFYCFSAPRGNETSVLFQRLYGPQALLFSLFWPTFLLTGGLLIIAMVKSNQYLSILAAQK
As to the kind of experiment: BK current in CHO cells expressing human BKαβ1 (PatchXpress whole-cell patch clamp), EC100. In kind it is cell-based. As to conditions: drug concentration causing 100% increase of BK current. As to the method:
Methods for Testing Compounds on Human BKαβ1 Channels Expressed Cho Cells
CHO cells expressing human BKαβ1 were cultured in T75 or 6 well cell culture cluster. Medium: DMEM/F12+10% FBS+0.5 mg/mL G418/genetecin+0.1 mg/mL Hygromycin. Split cells every 3-4 days at 80-90% confluence. Use cells for experiments 60-72 hrs after re-passage and at ˜90% confluence.
Trypsin solution (0.05% Trypsin+0.1% EDTA), Ca^2+ free PBS and culture medium were warmed to 37° C. Inspect the T75 flask for cell confluence. Remove culture medium and add warm Ca^2+ free PBS to wash cells. Remove Ca^2+ free PBS and add warm Trypsin solution. Put the T75 flask back to 37° C. incubator for about 4.5 minutes. Stop Trypsin activity by adding culture medium. Spin the cells down. Suspend cells in 120-160 μL external solution for BK current recording and use the cells as soon as possible.
PatchXpress Sealchip 16 electrodes (AVIVA Biosciences) and PatchXpress 7000A (Axon Instruments, Inc) were used for BK current recording. Flat bottom 1.5 mL glass vial (HiPep Laboratories) were used for containing external solutions (±compounds). The holes in the sealchip (equivalent to patch electrode) had resistance about 1.5 MΩ. Cell membrane capacitance was compensated and access resistance was also compensated by 40%. Voltage-clamp protocol: Holding voltage=0 mV. Record BK current during 200-ms steps between +80 to +120 mV in 10 mV increments and 2 sec inter-pulse interval. On-line digital leak subtraction was performed by a P/−4 procedure. After whole-cell configuration was established, 2 minute was used to optimize access resistance. Then the chamber was washed with control bath solution for 1 minute to remove excessive cells. Control bath solution was added with robotic pipette and control BK current was recorded after 1 minute equilibrium time. For each drug concentration, 45 μL drug solution was added three times with “suction before adding” mode which left old solution. For each drug addition, 1 minute equilibrium time was given. BK current was measured at each drug concentrations (usually within 3.5 minutes after first drug addition). Calculate % change of BK current at the voltage step when the control BK current first exceeding 200 pA. If the control BK current was less than 200 pA at 120 mV, the cell was not used. % changes were calculated as 100*(Id−Ic)/Ic, where Id was the current amplitude in the presence of drug and Ic was the control current amplitude.
EC100 was defined as the drug concentration causing 100% increase of BK current calculated by the method described above. EC100 was determined by the data points just below and above 100%. % Increase of BK current was plotted against log [drug concentration]. A straight line connected two data points flanking 100%. From this straight line, the concentration corresponding to 100% increase of BK current was determined as EC100.
Compounds were dissolved in DMSO to make 10 mM stock solutions. Subsequent dilutions were made with external solution. The testing drug concentrations were 0.1, 0.3, 1, 3 and 10 μM depending on the potency of compounds. The highest DMSO concentration was 0.1%. External solution (in mM): 140 NaCl, 4 KCl, 1 MgCl2, 2 CaCl2, 10 Glucose, 10 HEPES; pH=7.4 with NaOH. Internal solution (in mM): 140 KCl, 5 EGTA, 1 MgCl2, 5 MgATP, 0.2 CaCl2, 5 HEPES; pH=7.2 with KOH.
`COC[C@@H]1CCCN1c1cc(OC2(C(=O)[O-])CC2)nc(-c2cccc(C(F)(F)F)c2)n1.[Na+]` [Example 62]: the EC100 turned out to be 1.5 µM.

On to `CCOc1cc(F)cc(-c2nc(-c3ccc(F)cc3)nc(OC3(C(=O)[O-])CC3)c2C)c1.[Na+]` [Example 978], for which the EC100 was found to be 0.12 µM.

Molecule `Cc1c(OC2(C(=O)[O-])CC2)nc(-c2ccc(F)cc2)nc1-c1ccc(Cl)s1.[Na+]` [Example 1007] came in with an EC100 of 0.1 µM.

Take `O=C([O-])C1(Oc2cc(NC3CCCC3)nc(-c3ccc(Cl)c(F)c3)n2)CC1.[Na+]` [Example 47]: the EC100 amounted to 0.33 µM.

The molecule `CCCOC1CCN(c2nc(-c3ccc(Cl)cc3)nc(OC3(C(=O)O)CC3)c2C)CC1` [Example 1114] displayed an EC100 of 0.41 µM.

On to `COc1ccc(C(C)=O)cc1-c1cc(OC2(C(=O)[O-])CC2)nc(-c2ccc(Cl)c(F)c2)n1.[Na+]` [Example 199], for which the EC100 was found to be 1.14 µM.

As to `O=C([O-])C1(Oc2cc(-c3ccccc3O)nc(-c3ccc(Cl)c(F)c3)n2)CC1.[Na+]` [Example 552], the EC100 is 0.2 µM.

`COc1ncccc1-c1cc(OC2(C(=O)[O-])CCCC2)nc(-c2ccc(Cl)c(F)c2)n1.[Na+]` [Example 566]: the EC100 is 0.56 µM.

Consider `COCCN(CC(=O)O)c1cc(-c2ccc(F)cc2)nc(-c2ccc(Cl)c(F)c2)n1` [Example 646], for which the EC100 came to 1.23 µM.

`CCOCC1CCN(c2nc(-c3ccc(F)cc3)nc(OC3(C(=O)O)CC3)c2C)CC1` [Example 1122] had an EC100 of 0.9 µM.

For `COc1ccccc1-c1nc(OC(C)(C)C(=O)[O-])nc(-c2ccc(Cl)c(F)c2)n1.[Na+]` [Example 207], the EC100 was determined as 1.91 µM.

In turn, `O=C([O-])C1(Oc2cc(-c3ccc(F)cc3O)nc(-c3ccc(Cl)c(F)c3)n2)CC1.[Na+]` [Example 558] showed an EC100 of 0.04 µM.

On to `O=C([O-])C1(Oc2cc(N3CCc4ccc(F)cc4C3)nc(-c3ccc(Cl)cc3)n2)CC1.[Na+]` [Example 1095], for which the EC100 amounted to 0.3 µM.

For `COC[C@@H]1CCCN1c1cc(OC2(C(=O)[O-])CCCC2)nc(-c2ccc(Cl)c(F)c2)n1.[Na+]` [Example 54], the EC100 came to 1.31 µM.

In the case of `O=C([O-])C1(Oc2cc(N3CCc4ccc(F)cc4C3)nc(-c3ccc(F)cc3)n2)CC1.[Na+]` [Example 1109], the EC100 was 0.07 µM.

`CC(C)(Oc1cc(N2CCC(C(C)(C)O)CC2)nc(-c2ccc(Cl)c(F)c2)n1)C(=O)[O-].[Na+]` [Example 16] returned an EC100 of 1.91 µM.

The molecule `Cc1cc(C(F)(F)F)ccc1-c1nc(OC2(C(=O)O)CC2)nc(-c2ccc(Cl)cc2)n1` [Example 1092] returned an EC100 of 0.02 µM.

In turn, `O=C(O)C1(Oc2cc(-c3ccc(Cl)s3)nc(N3CCc4cc(F)ccc4C3)n2)CC1` [Example 1203] returned an EC100 of 0.01 µM.

In turn, `O=C([O-])C1(Oc2cc(N3CCc4cc(F)ccc43)nc(-c3ccc(F)cc3)n2)CC1.[Na+]` [Example 1108] came in with an EC100 of 0.36 µM.

Take `Cc1cc(F)cc(-c2nc(-c3ccc(F)cc3)nc(OC3(C(=O)[O-])CC3)c2C)c1.[Na+]` [Example 1000]: the EC100 was determined as 0.14 µM.

Consider `CN(Cc1cccc(F)c1)c1cc(OC2(C(=O)[O-])CC2)nc(-c2ccc(F)cc2)n1.[Na+]` [Example 1098], for which the EC100 stood at 0.11 µM.

Take `O=C([O-])C1(Oc2cc(-c3cncc(Cl)c3)nc(-c3ccc(Cl)c(F)c3)n2)CC1.[Na+]` [Example 563]: the EC100 amounted to 0.01 µM.

On to `CCCOC1CCN(c2nc(-c3ccc(Cl)cc3)nc(OC3(C(=O)[O-])CC3)c2F)CC1.[Na+]` [Example 1129], for which the EC100 was found to be 0.61 µM.

`COCCC1CCN(c2nc(OC3(C(=O)O)CC3)cc(-c3cc(Cl)c(Cl)s3)n2)CC1` [Example 1218] displayed an EC100 of 0.15 µM.

`COCc1cccc(-c2cc(OC3(C(=O)[O-])CC3)nc(-c3ccc(Cl)c(F)c3)n2)c1.[Na+]` [Example 526] displayed an EC100 of 0.36 µM.

The molecule `COCC1CCN(c2cc(OC(C)(C)C(=O)[O-])nc(-c3ccc(Cl)c(F)c3)n2)CC1.[Na+]` [Example 17] displayed an EC100 of 2.47 µM.

Turning to `COC[C@@H]1CCCN1c1cc(OC2(C(=O)[O-])CC2)nc(-c2ccc(Cl)c(F)c2)n1.[Na+]` [Example 36], the EC100 is 0.59 µM.

In turn, `O=C([O-])C1(Oc2cc(-c3nccs3)nc(-c3ccc(Cl)c(F)c3)n2)CC1.[Na+]` [Example 559] displayed an EC100 of 0.36 µM.

Regarding `Cc1c(OC2(C(=O)O)CC2)nc(-c2ccc(Cl)cc2)nc1-c1ccc(F)cc1` [Example 1015], the EC100 came out at 0.34 µM.

`Cc1ccc(C(F)(F)F)cc1-c1cc(OC2(C(=O)O)CC2)nc(-c2ccc(F)cc2)n1` [Example 906]: the EC100 came to 0.15 µM.

As to `CCCOC1CCN(c2cc(OC3(C(=O)[O-])CC3)nc(-c3ccc(F)cc3)n2)CC1.[Na+]` [Example 78], the EC100 turned out to be 1.41 µM.

Molecule `Cc1cc(C(F)(F)F)ccc1-c1cc(OC2(C(=O)O)CC2)nc(-c2ccc(F)cc2)n1` [Example 905] displayed an EC100 of 0.14 µM.

`CCOc1cccc(-c2nc(OC3(C(=O)[O-])CC3)cc(N3CCC[C@H]3COC)n2)c1.[Na+]` [Example 65] registered an EC100 of 1.43 µM.

The molecule `CCOc1cccc(-c2cc(OC3(C(=O)[O-])CC3)nc(-c3ccc(Cl)c(F)c3)n2)c1.[Na+]` [Example 553] yielded an EC100 of 0.1 µM.

`CCO[C@H]1CCCN(c2cc(OC3(C(=O)[O-])CC3)nc(-c3ccc(Cl)c(F)c3)n2)C1.[Na+]` [Example 50] had an EC100 of 1.05 µM.

`O=C(O)C1(Oc2cc(-c3ccc(Cl)cc3)nc(N3CCc4ccc(F)cc4C3)n2)CC1` [Example 1191] came in with an EC100 of 0.02 µM.

In turn, `O=C([O-])C1(Oc2cc(-c3ccc(Cl)s3)nc(N3CCc4ccc(F)cc4C3)n2)CC1.[Na+]` [Example 1202] registered an EC100 of 0.2 µM.

In turn, `CCCOCC1CCN(c2nc(-c3ccc(Cl)cc3)nc(OC3(C(=O)[O-])CC3)c2F)CC1.[Na+]` [Example 1133] yielded an EC100 of 1.29 µM.

Consider `O=C([O-])C1(Oc2cc(-c3cccc(C(F)(F)F)c3)nc(-c3ccc(Cl)c(F)c3)n2)CC1.[Na+]` [Example 556], for which the EC100 was determined as 0.03 µM.

`COc1nc(-c2cc(OC(C)(C)C(=O)[O-])nc(-c3ccc(Cl)c(F)c3)n2)cs1.[Na+]` [Example 506] came in with an EC100 of 1.38 µM.

For the molecule `CC(C)(Oc1cc(-c2ccc(F)cc2)nc(-c2ccc(Cl)c(F)c2)n1)C(=O)[O-].[Na+]` [Example 474], the EC100 came to 0.36 µM.

As for `CCOCC1CCN(c2nc(-c3ccc(Cl)cc3)nc(OC3(C(=O)[O-])CC3)c2F)CC1.[Na+]` [Example 1131], the EC100 was 0.23 µM.

For the molecule `COC[C@@H]1CCCN1c1nc(OC(C)(C)C(=O)[O-])nc(-c2ccc(Cl)c(F)c2)n1.[Na+]` [Example 6], the EC100 came to 1.61 µM.

The molecule `COc1cc(-c2nc(-c3ccc(F)cc3)nc(OC3(C(=O)[O-])CC3)c2C)ccc1F.[Na+]` [Example 996] returned an EC100 of 0.58 µM.

In turn, `Cc1cc(-c2nc(-c3ccc(F)cc3)nc(OC3(C(=O)[O-])CC3)c2C)ccc1F.[Na+]` [Example 999] returned an EC100 of 0.14 µM.

`CCOCc1ccc(-c2cc(OC3(C(=O)O)CC3)nc(-c3ccc(Cl)cc3)n2)c(C)c1` [Example 1034]: the EC100 came to 0.17 µM.

`N#Cc1cc(Cl)ccc1-c1cc(OC2(C(=O)O)CC2)nc(-c2ccc(Cl)cc2)n1` [Example 918] showed an EC100 of 0.2 µM.

Take `COCC1CCN(c2nc(-c3ccc(Cl)cc3)nc(OC3(C(=O)O)CC3)c2C)CC1` [Example 1115]: the EC100 was determined as 1.74 µM.

`COc1ccc(-c2cc(OC3(C(=O)[O-])CC3)nc(-c3ccc(Cl)c(F)c3)n2)cc1F.[Na+]` [Example 518] yielded an EC100 of 0.1 µM.

On to `COc1ccc(CN(C)c2cc(OC3(C(=O)O)CC3)nc(-c3ccc(F)cc3)n2)cc1` [Example 1100], for which the EC100 was found to be 0.38 µM.
